US11091496B2, “Opioid ketal compounds and uses thereof” (priority 2013, dated 2021)
Like-named read-outs stand apart in the source and are kept apart here. Marks after values point to notes of the source that are not given here.

Tests used:
[1] = type: physicochemical; details: for relative rate of hydrolysis: comparison of stereoisomers; for Hydrocodone, 2R,5R ketal in hydrolysis mixture: hydrocodone 2R,5R-hexanediol ketal tested separately; for Hydrocodone, 2R,5R ketal in hydrolysis mixture / Hydrocodone, 2S,5S ketal in hydrolysis mixture / % hydrocodone, % Ketal in hydrolysis mixture: 1 mg/ml; for Hydrocodone, 2S,5S ketal in hydrolysis mixture: hydrocodone 2S,5S-hexanediol ketal tested separately; for extent of hydrolysis to hydrocodone in about 4 hours: FIG. 5, FIG. 6; for % Oxycodone, % IVA-IVD in hydrolysis mixture: total 1 mg/ml; for % hydrocodone, % Ketal in hydrolysis mixture: hydrocodone 1,3-propanediol ketal
[2] = Ketal hydrolysis at varying pH, buffers at 37° C.; details: 1 mg/ml; for hydrolysis of the ketal: 37° C.
[3] = 5% acetic acid 100° C.; for % Oxycodone, % IVA-IVD in hydrolysis mixture: unreacted oxycodone + four isomers of Formula IV, 1 mg/ml
[4] = mixture of isomers, 0.1 N HCl 37° C.

hydrocodone 2R,5R-hexanediol ketal [2R,5R ketal]
relative rate of hydrolysis [1]: hydrolyzes relatively quickly
Hydrocodone, 2R,5R ketal in hydrolysis mixture ([1]; 0.1 N HCl 37° C., 0 h): 73.88
Hydrocodone, 2R,5R ketal in hydrolysis mixture ([1]; 0.1 N HCl 37° C., 0.5 h): 34.6
Hydrocodone, 2R,5R ketal in hydrolysis mixture ([1]; 0.1 N HCl 37° C., 1.25 h): 11.37
Hydrocodone, 2R,5R ketal in hydrolysis mixture ([1]; 0.1 N HCl 37° C., 2 h): 2.67
Hydrocodone, 2R,5R ketal in hydrolysis mixture ([1]; 0.1 N HCl 37° C., 3 h): 0
Hydrocodone, 2R,5R ketal in hydrolysis mixture ([1]; 0.1 N HCl 37° C., 4 h): 0

Hydrocodone 2R,4R-pentanediol ketal
hydrolysis of the ketal ([2]; pH 1, 0 h): 0
hydrolysis of the ketal ([2]; pH 1, 0.33 h): 50
hydrolysis of the ketal ([2]; pH 1, 1 h): 90
hydrolysis of the ketal ([2]; pH 1, 2 h): 99.8
hydrolysis of the ketal ([2]; pH 1, 4 h): 100
hydrolysis of the ketal ([2]; pH 1.5, 0 h): 0
hydrolysis of the ketal ([2]; pH 1.5, 0.33 h): 30.6
hydrolysis of the ketal ([2]; pH 1.5, 1 h): 59.4
hydrolysis of the ketal ([2]; pH 1.5, 2 h): 85.1
hydrolysis of the ketal ([2]; pH 1.5, 4 h): 98.2
hydrolysis of the ketal ([2]; pH 2, 0 h): 0
hydrolysis of the ketal ([2]; pH 2, 0.33 h): 8.3
hydrolysis of the ketal ([2]; pH 2, 1 h): 21.9
hydrolysis of the ketal ([2]; pH 2, 2 h): 37.7
hydrolysis of the ketal ([2]; pH 2, 4 h): 58.2
hydrolysis of the ketal ([2]; pH 2.5, 0 h): 0
hydrolysis of the ketal ([2]; pH 2.5, 0.33 h): 0
hydrolysis of the ketal ([2]; pH 2.5, 1 h): 0
hydrolysis of the ketal ([2]; pH 2.5, 2 h): 15.9
hydrolysis of the ketal ([2]; pH 2.5, 4 h): 26.4
hydrolysis of the ketal ([2]; pH 3, 0 h): 0
hydrolysis of the ketal ([2]; pH 3, 0.33 h): 0
hydrolysis of the ketal ([2]; pH 3, 1 h): 0
hydrolysis of the ketal ([2]; pH 3, 2 h): 5.9
hydrolysis of the ketal ([2]; pH 3, 4 h): 12.7
hydrolysis of the ketal ([2]; pH 4, 4 h, estimated from longer hydrolysis times): 1.3*
hydrolysis of the ketal ([2]; pH 5, 4 h, estimated from longer hydrolysis times): 0.15*
hydrolysis of the ketal ([2]; pH 7, 4 h, estimated from longer hydrolysis times): 0.01*
hydrolysis of the ketal ([2]; pH 12, 4 h, estimated from longer hydrolysis times): 0.01*
pH at which hydrolysis of the ketal is fastest ([2]; pH buffers 37° C.): fastest at pH 1

Hydrocodone 2S,5S-hexanediol ketal [2S,5S ketal]
relative rate of hydrolysis [1]: hydrolyzes relatively slowly
Hydrocodone, 2S,5S ketal in hydrolysis mixture ([1]; 0.1 N HCl 37° C., 0 h): 81.98
Hydrocodone, 2S,5S ketal in hydrolysis mixture ([1]; 0.1 N HCl 37° C., 0.5 h): 52.18
Hydrocodone, 2S,5S ketal in hydrolysis mixture ([1]; 0.1 N HCl 37° C., 1.25 h): 35.11
Hydrocodone, 2S,5S ketal in hydrolysis mixture ([1]; 0.1 N HCl 37° C., 2 h): 10.19
Hydrocodone, 2S,5S ketal in hydrolysis mixture ([1]; 0.1 N HCl 37° C., 3 h): 4.29
Hydrocodone, 2S,5S ketal in hydrolysis mixture ([1]; 0.1 N HCl 37° C., 4 h): 2

hydrocodone 2,5-hexanediol ketal
extent of hydrolysis to hydrocodone in about 4 hours ([1]; 0.1 N HCl 37° C.): nearly complete hydrolysis

COc1ccc2c3c1O[C@H]1[C@@]4(CCC5(O)[C@@H](C2)N(C)CC[C@]315)O[C@H](C)C[C@H](C)O4 (stereo partly drawn) [IVB, oxycodone 2S,4R-pentanediol ketal]
% Oxycodone, % IVA-IVD in hydrolysis mixture ([3]; 0 h): 10.9%
% Oxycodone, % IVA-IVD in hydrolysis mixture ([3]; 0.5 h): 8.7%
% Oxycodone, % IVA-IVD in hydrolysis mixture ([3]; 1 h): 9.7%
% Oxycodone, % IVA-IVD in hydrolysis mixture ([3]; 2 h): 9.2%
% Oxycodone, % IVA-IVD in hydrolysis mixture ([3]; 4.35 h): 9%
% Oxycodone, % IVA-IVD in hydrolysis mixture ([3]; 10 h): 4.8%
% Oxycodone, % IVA-IVD in hydrolysis mixture ([1]; 0.1 N HCl 37° C., 0 h): 10.7%
% Oxycodone, % IVA-IVD in hydrolysis mixture ([1]; 0.1 N HCl 37° C., 0.583 h): 10.6%
% Oxycodone, % IVA-IVD in hydrolysis mixture ([1]; 0.1 N HCl 37° C., 1.167 h): 10.7%
% Oxycodone, % IVA-IVD in hydrolysis mixture ([1]; 0.1 N HCl 37° C., 1.75 h): 7.8%
% Oxycodone, % IVA-IVD in hydrolysis mixture ([1]; 0.1 N HCl 37° C., 2.33 h): 8.3%
% Oxycodone, % IVA-IVD in hydrolysis mixture ([1]; 0.1 N HCl 37° C., 2.92 h): 8.7%
% Oxycodone, % IVA-IVD in hydrolysis mixture ([1]; 0.1 N HCl 37° C., 4 h): 9.2%
% Oxycodone, % IVA-IVD in hydrolysis mixture ([1]; 0.1 N HCl 37° C., 6.5 h): 10%
% Oxycodone, % IVA-IVD in hydrolysis mixture ([1]; 0.1 N HCl 37° C., 9.75 h): 10.2%
% Oxycodone, % IVA-IVD in hydrolysis mixture ([1]; 0.1 N HCl 37° C., 13.75 h): 10.4%
% Oxycodone, % IVA-IVD in hydrolysis mixture ([1]; 0.1 N HCl 37° C., 25 h): 9.3%

COc1ccc2c3c1O[C@H]1C4(CCC5[C@@H](C2)N(C)CC[C@@]351)OCCCO4 (stereo partly shown) [Hydrocodone 1,3-propanediol ketal]
extent of hydrolysis to hydrocodone in about 4 hours ([1]; 0.1 N HCl 37° C.): nearly complete hydrolysis
% hydrocodone, % Ketal in hydrolysis mixture ([1]; 0.1 N HCl 37° C., 0 h): 93.1%
% hydrocodone, % Ketal in hydrolysis mixture ([1]; 0.1 N HCl 37° C., 0.57 h): 65.7%
% hydrocodone, % Ketal in hydrolysis mixture ([1]; 0.1 N HCl 37° C., 1.25 h): 52.3%
% hydrocodone, % Ketal in hydrolysis mixture ([1]; 0.1 N HCl 37° C., 2 h): 41.8%
% hydrocodone, % Ketal in hydrolysis mixture ([1]; 0.1 N HCl 37° C., 3 h): 32.8%
% hydrocodone, % Ketal in hydrolysis mixture ([1]; 0.1 N HCl 37° C., 4 h): 25.6%

COc1ccc2c3c1O[C@H]1[C@]4(CCC5(O)[C@@H](C2)N(C)CC[C@]315)O[C@H](C)C[C@H](C)O4 (stereo partly drawn) [IVA, oxycodone 2R,4S-pentanediol ketal]
% Oxycodone, % IVA-IVD in hydrolysis mixture ([3]; 0 h): 24%
% Oxycodone, % IVA-IVD in hydrolysis mixture ([3]; 0.5 h): 21.1%
% Oxycodone, % IVA-IVD in hydrolysis mixture ([3]; 1 h): 15.8%
% Oxycodone, % IVA-IVD in hydrolysis mixture ([3]; 2 h): 6%
% Oxycodone, % IVA-IVD in hydrolysis mixture ([3]; 4.35 h): 3.1%
% Oxycodone, % IVA-IVD in hydrolysis mixture ([3]; 10 h): 0%
% Oxycodone, % IVA-IVD in hydrolysis mixture ([1]; 0.1 N HCl 37° C., 0 h): 24.7%
% Oxycodone, % IVA-IVD in hydrolysis mixture ([1]; 0.1 N HCl 37° C., 0.583 h): 25.9%
% Oxycodone, % IVA-IVD in hydrolysis mixture ([1]; 0.1 N HCl 37° C., 1.167 h): 25.6%
% Oxycodone, % IVA-IVD in hydrolysis mixture ([1]; 0.1 N HCl 37° C., 1.75 h): 25%
% Oxycodone, % IVA-IVD in hydrolysis mixture ([1]; 0.1 N HCl 37° C., 2.33 h): 25.9%
% Oxycodone, % IVA-IVD in hydrolysis mixture ([1]; 0.1 N HCl 37° C., 2.92 h): 24.8%
% Oxycodone, % IVA-IVD in hydrolysis mixture ([1]; 0.1 N HCl 37° C., 4 h): 23.7%
% Oxycodone, % IVA-IVD in hydrolysis mixture ([1]; 0.1 N HCl 37° C., 6.5 h): 19.8%
% Oxycodone, % IVA-IVD in hydrolysis mixture ([1]; 0.1 N HCl 37° C., 9.75 h): 15.6%
% Oxycodone, % IVA-IVD in hydrolysis mixture ([1]; 0.1 N HCl 37° C., 13.75 h): 9.9%
% Oxycodone, % IVA-IVD in hydrolysis mixture ([1]; 0.1 N HCl 37° C., 25 h): 4.3%

oxycodone cis 1,2-cyclohexanedimethanol ketals
proportion of oxycodone in the mixture ([1]; 0.1 N HCl 37° C., within five hours, FIG. 4): increased from about 30% to about 55%

COc1ccc2c3c1O[C@H]1C4(CCC5(O)[C@@H](C2)N(C)CC[C@]315)OCCC(C)O4 (stereo partly shown) [Formula V, oxycodone 1,3-butanediol ketal]
time to almost completely hydrolyze to oxycodone ([3]; FIG. 12, FIG. 13): at least 4 hours
time to about 60% hydrolysis ([3]; FIG. 13): about 1 hour
time at which about 50% of the oxycodone is released [1, 4]: about 5 hours
time by which about (almost) 90% oxycodone release occurs [1, 4]: ≤ 25 h
